# Numbers after ± are expanded uncertainties.
# Assay: refractive index (Na D-line) (dimensionless)
# Conditions: 298.15 K; 101.33 kPa; Liquid; Standard Abbe refractometry
row,refractive index,Compound
1,1.35947 ± 0.00033,CCO [ethanol]
2,1.32655 ± 0.00031,CO [methanol]
3,1.33251 ± 0.00031,O [water]
